Results published in article PMC3412796, “High-Throughput Screening and Rapid Inhibitor Triage Using an Infectious Chimeric Hepatitis C Virus” (PLoS ONE, 2012).
Marks after values point to notes of the source that are not given here.

Experiments:
gt 1a/2a-Rluc virus [1] = assay: HCV Core Cellomics ArrayScan assay (HCS); details: 96 h, Huh-7.5 cells, HCV Core Cellomics readout, average ± SD of at least three experiments
Procedure: For compound library screening, infections were performed in 384-well plates by pre-mixing 400 ffu of gt 1a/2a-Rluc virus with 1×10^4 Huh-7.5 cells and dispensing 50 µl on top of 150 nl of compound in DMSO (final 0.3% DMSO) followed by incubation at 37°C. Renilla luciferase activity, reflecting the degree of virus replication, was measured 96 h after infection using the EnduRen reagent (Promega). […] Maximum activity (100% of control) and background were derived from control wells containing DMSO alone or from uninfected wells, respectively. The individual signals in each of the compound test wells were then divided by the averaged control values (wells lacking inhibitor), after background subtraction, and multiplied by 100% to determine percent activity. The corresponding % inhibition values were then calculated by subtracting this value from 100. Dose-response assays were performed in triplicate and average EC50 values (reflecting the concentration at which 50% inhibition of virus replication was achieved) were calculated using XLfit for Excel (ID Business Solutions, Burlington, MA). Cytotoxicity studies were performed in parallel using CellTiter-Glo (Promega). […] The total number of cells per well (Hoechst staining) and infected cells per well (HCV Core) was measured using a Cellomics ArrayScan HCS Reader (Thermo Scientific) and EC50 values calculated as described above. […]

gt 1a/2a-Rluc virus [2] = assay: Multi-cycle virus growth assay, Renilla luciferase readout (HTS); details: for inhibition of luciferase expression: MOI 0.05, EI 1 µM added 16 h post-entry, LY411575 0.5 µM
Procedure: For compound library screening, infections were performed in 384-well plates by pre-mixing 400 ffu of gt 1a/2a-Rluc virus with 1×10^4 Huh-7.5 cells and dispensing 50 µl on top of 150 nl of compound in DMSO (final 0.3% DMSO) followed by incubation at 37°C. Renilla luciferase activity, reflecting the degree of virus replication, was measured 96 h after infection using the EnduRen reagent (Promega). […] Maximum activity (100% of control) and background were derived from control wells containing DMSO alone or from uninfected wells, respectively. The individual signals in each of the compound test wells were then divided by the averaged control values (wells lacking inhibitor), after background subtraction, and multiplied by 100% to determine percent activity. The corresponding % inhibition values were then calculated by subtracting this value from 100. Dose-response assays were performed in triplicate and average EC50 values (reflecting the concentration at which 50% inhibition of virus replication was achieved) were calculated using XLfit for Excel (ID Business Solutions, Burlington, MA). Cytotoxicity studies were performed in parallel using CellTiter-Glo (Promega). For high-content screening, virus and cells were prepared as above and 50 ul was dispensed into black 384 well optics plates (Thermo Scientific). At 96 h post-infection, cells were fixed for 20 min by adding 17 ul of 16% paraformaldehyde (Electron Microscopy Sciences) to achieve 4% final fixative. Cells were washed and permeabilized twice for 10 min each with PBS containing 1% TX-100 and 0.05% Tween-20 (wash buffer) and blocked for 15 min with PBS with 2% BSA (blocking buffer). […] The total number of cells per well (Hoechst staining) and infected cells per well (HCV Core) was measured using a Cellomics ArrayScan HCS Reader (Thermo Scientific) and EC50 values calculated as described above.

gt 1a/2a-Rluc virus [3] = assay: Virus foci expansion by HCV Core immunofluorescence; format: cell-based, Hepatitis C virus; details: EI 1 µM added 16 h post-entry, LY411575 0.5 µM
gt 1a/2a-Rluc virus [4] = assay: HCVcc resistance selection; details: virus cultured at 5× EC50 up to 10 weeks or until resistance observed
Procedure: The gt 1a/2a-Rluc virus was used to infect Huh-7.5 cells and inhibitor was added 12 h post-infection at 5× EC50. Infection was allowed to progress for 96 h and cells were split 1∶1 with naïve Huh-7.5 cells in the presence of inhibitor and cultured for another 96 h. Viral supernatants were passed onto naïve Huh-7.5 cells in the presence of inhibitor and HCVcc replication in the presence of inhibitor was monitored by determining the spread of virus infection, using immunofluorescence (HCV Core), at each passage. Generally, virus stocks were prepared when HCVcc was ≥10-fold resistant relative to wild-type parental virus. The HCV genome was amplified by RT-PCR (Invitrogen), cloned and amino acid changes that arose during inhibitor selection were identified by analysis of the DNA sequence compared to the parent and control passages in the absence of inhibitor.

gt 1a/2a-Rluc virus [5] = assay: HCVcc infectious virus release assay; details: 2× EC90 of compound, 48 h pi
Procedure: Cells were incubated at 37°C for 48 h and supernatants were collected. Supernatants were clarified by centrifugation, diluted 20 fold and used to infect naïve Huh-7.5 cells in 96 well plates. Renilla luciferase expression was measured in both producer cells and target cells 48 h post-infection as described above.

Compound | Cellomics (EC50) (gt 1a/2a-Rluc virus [1]) | Luciferase (EC50) (gt 1a/2a-Rluc virus [2]; 96 h, Huh-7.5 cells, Renilla luciferase readout, average ± SD of at least three experiments) | size of HCV Core-positive virus foci (gt 1a/2a-Rluc virus [3]; 48 h pi, MOI 0.05, Huh-7.5) | inhibition of expansion of virus foci (gt 1a/2a-Rluc virus [3]; 96 h pi, MOI 0.05) | Fold Resistance (gt 1a/2a-Rluc virus [4]) | effect on Renilla luciferase expression in producer and target cells (gt 1a/2a-Rluc virus [5]) | EC50 (gt 1a/2a-Rluc virus [1]; read-out: Cellomics (EC50)) | % inhibition in a 96 h assay (gt 1a/2a-Rluc virus [2]; 384 well, 400 ffu of virus/well and 4,000 Huh7.5 cells (MOI = 0.1), 96 h) | inhibition of luciferase expression (gt 1a/2a-Rluc virus [2]; 48 h pi) | inhibition of luciferase expression (gt 1a/2a-Rluc virus [2]; 72 h pi) | inhibition of luciferase expression (gt 1a/2a-Rluc virus [2]; 96 h pi) | difference in potency at 96 h vs 48 h pi (multi- vs single-cycle) (gt 1a/2a-Rluc virus [2]; EC50 at 48 h vs 96 h pi) | EC50 (gt 1a/2a-Rluc virus [2]; read-out: Luciferase (EC50), 96 h, Huh-7.5 cells, Renilla luciferase readout, average ± SD of at least three experiments)
IFNα | 0.17±0.08 ^b International units per ml | 0.20±0.04 ^b International units per ml |  |  |  |  |  |  |  |  |  |  | 
C[C@H](NC(=O)[C@@H](O)c1cc(F)cc(F)c1)C(=O)N[C@@H]1C(=O)N(C)c2ccccc2-c2ccccc21 [LY411575] |  |  | 2.0±0.6 mean cells/foci | > 20 fold | did not select for resistance through ten weeks of culture and None | only affected Renilla luciferase expression in target cells | 11 ± 4.1 nM | > 90% | < 20% | > 80% | > 90% | > 200 fold | 10 ± 3.3 nM
